Reference: US6673823B2, “Use of peroxisome proliferator activated receptor (PPAR)-γ ligands as a treatment for pituitary tumors and associated conditions, such as Cushing's syndrome” (Cedars-Sinai Medical Center, priority 2002, dated 2004)

Experiments:
[1] = tested on: rat GH3, murine αT3, and human pituitary tumor cells; assay: Annexin-FITC, FACS and TUNEL apoptosis analysis; format: cell-based; conditions: control 33±3, p<0.0002
Procedure: Apoptosis Assay: Annexin FITC by flow Cytometry. GH3, αT3 and human pituitary tumor cells were treated, washed in PBS, trypsinized, centrifuged, and washed prior to incubation with a FITC-labeled monoclonal Annexin antibody and PI for 30 min at room temperature according to manufacturer's instructions (Pharmingen, San Diego, Cailf.). About 1×10^6 cells were prepared and analyzed by flow cytometry, labeled nuclei (PI) were gated on light scatter to remove debris, and the percentage of Annexin-FITC positive cells determined. Annexin-FITC positive cells were also visualized with an Olympus BH2 immunofluorescent microscope.
Terminal Deoxynucleotidyltransferase-mediated dUTP Nick End Labeling (TUNEL). Apoptosis-induced nuclear DNA fragmentation was detected using the in situ cell death detection kit, TMR red (Roche Diagnostics, Indianapolis, Ind.) following the manufacturer's protocol. Briefly, 48 hours following TZD treatment, GH3, αT3 and human pituitary tumor cells were fixed in 4% weight per volume paraformaldehyde, permeabilized with 0.1% sodium citrate/ 0.6% Tween 20 (pH 7.4) for 2 min at 4° C. prior to incubation in Tunel reaction mix (TMR red/dNTP mix, TdT, and labeling buffer) for 60 min at 37° C. Slides were washed (3×5 min) in PBS/Triton/BSA (0.3%) and visualized on a an Olympus BH2 immunofluorescent microscope.

[2] = tested on: AtT20 mouse pituitary (ACTH-secreting) tumor cells; assay: Cell cycle distribution (FACS, propidium iodide); format: cell-based; conditions: 10^−6 to 10^−4 M, up to 48 h serum-free or up to 96 h serum-replete
Procedure: Cell Culture. […] Medium was replenished with ligands every 2 days, and cells maintained in serum-containing medium or in serum-free medium for up to 96 hours.
Cell Cycle Distribution. Following treatments, AtT20 cells were trypsinized, centrifuged (1500 rpm×2 min), washed with PBS, and treated with 20 µg/mL Rnase A (Calbiochem, La Jolla, Calif.). DNA was stained with 100 μg/mL propidium iodide (PI) for 30 min at 40° C. and protected from light, prior to analysis with a FACScan (Becton Dickinson, Franklin Lakes, N.J.). DNA histogram analysis was performed using the modFitLT software.
To determine the functional significance of pituitary corticotroph PPAR-γ expression, the effects of PPAR-γ ligands were tested on ACTH-secreting pituitary tumor cells in vitro. Troglitazone or rosiglitazone-treatment (10^−6 to 10^−4 M) for up to 48 hours, when cells were maintained in serum-free conditions, or up to 96 hours, when cells were maintained in serum-replete conditions, induced G0-G1 cell-cycle arrest (control, G1 75±4% vs. ros, G1 85±2%, p=0.009), and led to decreased S-phase cells (control, 18±0.05% vs. ros, 12±0.5%, p=0.001) (FIG. 3A).

CN(CCOc1ccc(CC2SC(=O)NC2=O)cc1)c1ccccn1 (racemic) [rosiglitazone, (±)-5-[[4-[2-(methyl-2-pyridinylamino)ethoxy]phenyl]methyl]-2,4-thiazolidinedione,(Z)-2-butenedioate]
% apoptosis ([1]; 10^−5 M): 69±7% | % apoptosis ([1]; 10^−6 M): 47±4% | S-phase cells ([2]; control 18±0.05%, p=0.001): 12±0.5% | cells in G1 (G0-G1 cell-cycle arrest) ([2]; control 75±4%, p=0.009): 85±2%
